Tests used:
hepatocytes [1] = assay: Effect of each medium component on bile canaliculi formation (component removal); format: cell-based, human; settings: normal culture, Day 4; named component removed from the medium of the instant invention
Experimental: (§1) The frozen stock of human primary-cultured hepatocytes (PHHs) was thawed using commercially available thawing medium, and cell number was counted using trypan blue. To a 96-well plate coated with collagen I, PHHs were plated at 1.0×10^5 cells/well seeding density, using the medium of the instant invention, commercial medium A, commercial medium B, and commercial medium C such that the medium volume was 75 μL/well, and cultured at 37° C. under 5% CO2 condition. Four hours, 1 day, 2 days, and 4 days after seeding, the total amount of medium was replaced using each medium such that the medium volume was 75 μL/well, and the plate was cultured until Day 7 of culture.
Eight types of media in total: the medium of the instant invention, and media prepared by removing the main six components (HGF, OsM, DEX, Frk, DMSO, S-220) from the medium of the instant invention (in some case, 2 components were removed), were prepared, and each was used for performing normal culture. Phase contrast microscopy was performed on Day 4 of culture. […] Thereafter, the culture was washed three times with HBSS (+), the medium for each condition was added at 75 μL/well, then the culture was incubated in CO2 incubator (5% CO2, 37° C.) for 10 minutes and observed by fluorescence microscopy.

hepatocytes [2] = assay: Effectiveness of different K-Ras activating agents in bile canaliculi formation; format: cell-based, human; settings: normal culture, Day 4; agent added to medium of the instant invention without OsM
Experimental: as §1
Two types of media were used as controls: the medium of the instant invention without OsM (a negative control), and the medium of the instant invention (a positive control), and four more types of media were prepared based on the negative control to which a K-Ras activating agent other than OsM (IL-6, LIF, CNTF or Ras-GRF) was added (six types of media in total). Each medium was used for carrying out normal culture, and on culture Day 4 the medium was removed and 4 μmol/L CDFDA solution was added at 100 μL/well. The culture was incubated in a CO2 incubator (5% CO2, 37° C.) for 10 minutes, and observed using fluorescence microscopy.

oncostatin M [OsM] was tested, and the “accumulation of CDFDA in bile canaliculi (fluorescence microscopy image)” value (hepatocytes [1]) was “almost no accumulation of CDFDA in the bile canaliculi” and the “boundaries between cells (phase contrast microscope image)” value (hepatocytes [1]) was “boundaries between cells could hardly be observed”.
In the case of “IL-6: IL-6 family cytokine, K-Ras activating agent other than OsM”, the “level of accumulation of CDFDA relative to OsM (positive control)” value (hepatocytes [2]) is reported as “comparable level of accumulation of CDFDA”.
